# Patent US20240287138A1, “CYCLIC PEPTIDES FOR INHIBITING TNF RECEPTOR 1 ACTIVITY” (Merck Sharp & Dohme LLC, priority 2023, published 2024)
# Numbered stars: 1 amine (or outer) side, 2 acyl side, 3 side chain; on linkers, the order of the positions; unused ones are H or OH. Bridge positions count the residues as written; N and C are the ends. Square brackets hold non-standard residues; d marks the D form. Peptide text beside a SMILES is read from it. Trp(βS-Me,7-OMe) = COc1cccc2c([C@H](C)[C@H](N)C(=O)O)c[nH]c12; Trp(βS-Me) = C[C@@H](c1c[nH]c2ccccc12)[C@H](N)C(=O)O; Phe(4-SO3H) = N[C@@H](Cc1ccc(S(=O)(=O)O)cc1)C(=O)O; Trp(7-CN) = N#Cc1cccc2c(C[C@H](N)C(=O)O)c[nH]c12; Trp(7-Cl) = N[C@@H](Cc1c[nH]c2c(Cl)cccc12)C(=O)O; Ala(piperazin-1-yl) = N[C@@H](CN1CCNCC1)C(=O)O; Phe(4-CONH2) = NC(=O)c1ccc(C[C@H](N)C(=O)O)cc1; Phe(4-COOH) = N[C@@H](Cc1ccc(C(=O)O)cc1)C(=O)O; 4Pal(3S-Me) = C[C@@H](c1ccncc1)[C@H](N)C(=O)O; Phe(4-CH2NH2) = NCc1ccc(C[C@H](N)C(=O)O)cc1; αMeW = C[C@](N)(Cc1c[nH]c2ccccc12)C(=O)O; Lys(N3) = [N-]=[N+]=NCCCC[C@H](N)C(=O)O; X1 = O=C([C@@H]1CC[C@H](N[*:1])C1)[*:2]; dPro(3S-OH) = O=C(O)[C@@H]1NCC[C@@H]1O; 2Nal = N[C@@H](Cc1ccc2ccccc2c1)C(=O)O; Pip(4-aza) = O=C(O)[C@@H]1CNCCN1; 3Pal = N[C@@H](Cc1cccnc1)C(=O)O; 4Pal = N[C@@H](Cc1ccncc1)C(=O)O; NMeE = CN[C@@H](CCC(=O)O)C(=O)O; dHyp = O=C(O)[C@H]1C[C@H](O)CN1; Ahp(2) = CCCCC[C@H](N)C(=O)O; αMeS = C[C@](N)(CO)C(=O)O; Nle = CCCC[C@H](N)C(=O)O; Dap = NC[C@H](N)C(=O)O; Sar = CNCC(=O)O
# Target: T1, human soluble TNFR1 (sTNFR1) (Homo sapiens, UniProt P19438)
# T1 construct: made in house; host or cells: Sf21 (baculovirus)
# T1 sequence (P19438 with tags, fused parts or gaps): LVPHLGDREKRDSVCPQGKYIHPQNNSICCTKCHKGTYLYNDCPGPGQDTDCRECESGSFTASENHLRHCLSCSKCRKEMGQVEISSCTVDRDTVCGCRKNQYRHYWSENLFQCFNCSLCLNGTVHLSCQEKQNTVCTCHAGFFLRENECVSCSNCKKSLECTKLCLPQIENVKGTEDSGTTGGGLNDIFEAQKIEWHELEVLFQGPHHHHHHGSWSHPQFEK
# Assay: Human sTNFR1-peptide displacement assay (LanthaScreen Eu TR-FRET binding assay)
# Method: A. Procedure for Human sTNFR1-Peptide Displacement Assay
# The affinity was determined using LanthaScreen Eu-based time-resolved fluorescence resonance energy transfer (TR-FRET)-based binding assay.
# A TR-FRET assay measuring the displacement of biotinylated peptide SEQ ID NO. 1 from human soluble TNFR1 (sTNFR1) in a pre-formed complex by a macrocyclic peptide yields the affinity (Kd^app) of the cyclic peptide for sTNFR1. The reagents for the assay include: the C′-terminally 6His-tagged sTNFR1 (residues 1-211) protein purified from a Sf21 baculovirus expression system, the biotin-tagged B0372 peptide described in section “Preparation of Final Compounds”, part E, the LanthaScreen™ anti-His Tag Europium donor (Life Technologies Corporation (San Diego, CA), cat. #PV5597), and a streptavidin-conjugate Alexa Fluor™ 647 acceptor (Invitrogen (Waltham, MA), cat. #S32357). Time-resolved TR-FRET is achieved when sTNFR1 is bound to biotinylated peptide SEQ ID NO. 1 through coupling of the donor and acceptor FRET pair.
# 100 nM biotinylated peptide SEQ ID NO. […] 100 nM biotinylated peptide SEQ ID NO. 1 was chosen as it reflects the ˜Kd for this complex. After 30 min at ambient temperature, each test peptide (2 mM stock in DMSO) is titrated in a 20 point, ˜3-fold discrete dose-response using an acoustic-dispense liquid handler. Specifically, 80 nL of peptide/DMSO is transferred into a ProxiPlate-384 Plus 384-well assay plate (PerkinElmer, cat. #6008289). To this plate, 8 μL of the previously formed sTNFR 1-biotinylated peptide SEQ ID NO. 1 complex is added and allowed to reach binding equilibrium with the test peptide at ambient temperature for 90 min.
# The TR-FRET signal is measured with the following EnVision® settings: excitation laser at 337 nm; emission1=615 nm, emission2=665 nm, LANCE/DELFIA dichroic mirror, delay time=[…]. The signal of each well is determined as the ratio of the emission at 665 nm to that at 615 nm. Percent displacement is determined by normalization to control wells containing DMSO (0%) or a saturating concentration of a displaceable peptide (100%). The %-effect as a function of peptide concentration is fit to a five-parameter logistic fit based on the Morrison equation to account for tight binding kinetics.
Compound,Kd [nM],IC50 [nM]
"CCCC[C@@H]1NC(=O)[C@@H]2CC[C@@H](C2)NC(=O)[C@H]([C@@H](C)c2c[nH]c3c(OC)cccc23)NC(=O)CN(C)C(=O)[C@H](Cc2ccc(O)cc2)NC(=O)[C@H](Cc2ccc(C(=O)O)cc2)NC(=O)[C@](C)(CO)NC(=O)[C@H](Cc2c[nH]c3c(Cl)cccc23)NC(=O)[C@H](Cc2ccc(S(=O)(=O)O)cc2)NC(=O)[C@H](CC(N)=O)NC(=O)[C@H](CCC(=O)O)N(C)C(=O)[C@H](Cc2c[nH]c3ccccc23)NC(=O)[C@@H]2CNCCN2C(=O)[C@H](Cc2ccncc2)NC1=O [SEQ ID NO. 173] (cyclo([4Pal][Pip(4-aza)]W[NMeE]N[Phe(4-SO3H)][Trp(7-Cl)][αMeS][Phe(4-COOH)]Y[Sar][Trp(βS-Me,7-OMe)][X1][Nle]))",0.26,–
"CCCC[C@@H]1NC(=O)[C@@H]2CC[C@@H](C2)NC(=O)[C@H]([C@@H](C)c2c[nH]c3c(OC)cccc23)NC(=O)CN(C)C(=O)[C@H](Cc2ccc(O)cc2)NC(=O)[C@H](Cc2ccc(C(=O)O)cc2)NC(=O)[C@](C)(CO)NC(=O)[C@H](Cc2c[nH]c3c(Cl)cccc23)NC(=O)[C@H](Cc2ccncc2)NC(=O)[C@H](CC(N)=O)NC(=O)[C@H]2[C@@H](O)CCN2C(=O)[C@H](Cc2c[nH]c3ccccc23)NC(=O)[C@@H]2CNCCN2C(=O)[C@H](Cc2ccncc2)NC1=O [SEQ ID NO. 192] (cyclo([4Pal][Trp(7-Cl)][αMeS][Phe(4-COOH)]Y[Sar][Trp(βS-Me,7-OMe)][X1][Nle][4Pal][Pip(4-aza)]W[dPro(3S-OH)]N))",0.24,–
CCCCC[C@@H]1NC(=O)CSC[C@@H](C(N)=O)NC(=O)[C@](C)(Cc2c[nH]c3ccccc23)NC(=O)CN(C)C(=O)[C@H](Cc2cccnc2)NC(=O)[C@H](Cc2ccc(C(=O)O)cc2)NC(=O)[C@](C)(CO)NC(=O)[C@H](Cc2c[nH]c3c(Cl)cccc23)NC(=O)[C@H](Cc2ccncc2)NC(=O)[C@H](CC(N)=O)NC(=O)[C@H]2CCCN2C(=O)[C@H]([C@@H](C)c2c[nH]c3ccccc23)NC(=O)[C@H](CN2CCNCC2)NC(=O)[C@H](Cc2ccc(O)cc2)NC1=O [SEQ ID NO. 226] ({CH2CO}-[Ahp(2)]Y[Ala(piperazin-1-yl)][Trp(βS-Me)][dP]N[4Pal][Trp(7-Cl)][αMeS][Phe(4-COOH)][3Pal][Sar][αMeW]C-NH2; thioether N-14),–,1.16
"CCCCC[C@@H]1NC(=O)[C@@H]2CC[C@@H](C2)NC(=O)[C@H]([C@@H](C)c2c[nH]c3c(OC)cccc23)NC(=O)CN(C)C(=O)[C@H](Cc2ccc(C(N)=O)cc2)NC(=O)[C@H](Cc2ccc(C(N)=O)cc2)NC(=O)[C@](C)(CO)NC(=O)[C@H](Cc2c[nH]c3c(C#N)cccc23)NC(=O)[C@H](Cc2ccc(C(=O)O)cc2)NC(=O)[C@H](CC(N)=O)NC(=O)[C@H]2C[C@H](O)CN2C(=O)[C@H](Cc2c[nH]c3ccccc23)NC(=O)[C@H]([C@@H](C)O)NC(=O)[C@H]([C@@H](C)c2ccncc2)NC1=O [SEQ ID NO. 234] (cyclo([Ahp(2)][4Pal(3S-Me)]TW[dHyp]N[Phe(4-COOH)][Trp(7-CN)][αMeS][Phe(4-CONH2)][Phe(4-CONH2)][Sar][Trp(βS-Me,7-OMe)][X1]))",0.24,–
CCCCC[C@@H]1NC(=O)CSC[C@@H](C(N)=O)NC(=O)[C@](C)(Cc2c[nH]c3ccccc23)NC(=O)CN(C)C(=O)[C@H](Cc2c[nH]cn2)NC(=O)[C@H](Cc2ccc(C(=O)O)cc2)NC(=O)[C@](C)(CO)NC(=O)[C@H](Cc2ccc3ccccc3c2)NC(=O)[C@H](Cc2ccc(C(=O)O)cc2)NC(=O)[C@H](CC(N)=O)NC(=O)[C@H]2CCCN2C(=O)[C@H]([C@@H](C)c2c[nH]c3ccccc23)NC(=O)[C@H](CO)NC(=O)[C@H](Cc2ccncc2)NC1=O [SEQ ID NO. 237] ({CH2CO}-[Ahp(2)][4Pal]S[Trp(βS-Me)][dP]N[Phe(4-COOH)][2Nal][αMeS][Phe(4-COOH)]H[Sar][αMeW]C-NH2; thioether N-14),–,13
C[C@@H](c1c[nH]c2ccccc12)[C@@H]1NC(=O)[C@H](CN)NC(=O)[C@H](Cc2ccncc2)NC(=O)[C@H](CCCCN=[N+]=[N-])NC(=O)CSC[C@@H](C(N)=O)NC(=O)[C@](C)(Cc2c[nH]c3ccccc23)NC(=O)CN(C)C(=O)[C@H](Cc2ccc(CN)cc2)NC(=O)[C@H](Cc2ccc(C(=O)O)cc2)NC(=O)[C@](C)(CO)NC(=O)[C@H](Cc2c[nH]c3c(Cl)cccc23)NC(=O)[C@H](Cc2ccncc2)NC(=O)[C@H](CC(N)=O)NC(=O)[C@H]2CCCN2C1=O [SEQ ID NO. 245] ({CH2CO}-[Lys(N3)][4Pal][Dap][Trp(βS-Me)][dP]N[4Pal][Trp(7-Cl)][αMeS][Phe(4-COOH)][Phe(4-CH2NH2)][Sar][αMeW]C-NH2; thioether N-14),–,0.95
